According to patent US20060004004A1, “Novel gamma secretase inhibitors” (Schering Corporation, priority 2004, published 2006):
Where “and” joins values, the source holds several entries; their conditions need not be identical. Identical values can stand only once. Like-named read-outs stand apart in the source and are kept apart here.

Biological target: T1, γ-secretase (Homo sapiens, UniProt P49768)
T1 construct: endogenous in cells; host or cells: membranes of 293 cells (T-REx, clone pTRE.15) with tetracycline-induced SPC99-Lon
Assay: Gamma secretase activity, membrane assay with Aβ 40 / Aβ 42 ECL immunoassay (Zhang et al.)
Format: biochemical
Text: Antibodies W02, G2-10, and G2-11 were obtained from Dr. Konrad Beyreuther (University of Heidelberg, Heidelberg, Germany). W02 recognizes residues 5-8 of Aβ peptide, while G2-10 and G2-11 recognize the specific C-terminal structure of Aβ 40 and Aβ 42, respectively. Biotin-4G8 was purchased from Senetec (St. Louis, Mo.). All tissue culture reagents used in this work were from Life Technologies, Inc., unless otherwise specified. Pepstatin A was purchased from Roche Molecular Biochemicals; DFK167 was from Enzyme Systems Products (Livermore, Calif.).
Upon insertion into the membrane, the 17 amino acid signal peptide is processed, leaving an additional leucine at the N-terminus of Aβ. SPC99-lon was cloned into the pcDNA4/TO vector (Invitrogen) and transfected into 293 cells stably transfected with pcDNA6/TR, which is provided in the T-REX system (Invitrogen). The transfected cells were selected in Dulbecco's modified Eagle's media (DMEM) supplemented with 10% fetal bovine serum, 100 units/mL penicillin, 100 µg/mL streptomycin, 250 µg/mL zeocin, and 5 µg/mL blasticidin (Invitrogen). Colonies were screened for Aβ production by inducing C99 expression with […] tetracycline for 16-20 h and analyzing conditioned media with a sandwich immunoassay (see below). One of the clones, designated as pTRE.15, was used in these studies.
C99 expression in cells was induced with […] tetracycline for 20 h. The cells were pretreated with […] 12-myristate 13-acetate (PMA) and […] brefeldin A (BFA) for 5-6 h at 37° C. before harvesting. The cells were washed 3 times with cold phosphate-buffered saline (PBS) and harvested in buffer A containing 20 mM Hepes (pH 7.5), 250 mM sucrose, 50 mM KCl, 2 mM EDTA, 2 mM EGTA, and Complete protease inhibitor tablets (Roche Molecular Biochemicals). The cell pellets were flash-frozen in liquid nitrogen and stored at −70° C. before use.
To make membranes, the cells were resuspended in buffer A and lysed in a nitrogen bomb at 600 psi. The cell lysate was centrifuged at 1500 g for 10 min to remove nuclei and large cell debris. The supernatant was centrifuged at 100000 g for 1 h. The membrane pellet was resuspended in buffer A plus 0.5 M NaCl, and the membranes were collected by centrifugation at 200000 g for 1 h. The salt-washed membrane pellet was washed again in buffer A and centrifuged at 100000 g for 1 h. The final membrane pellet was resuspended in a small volume of buffer A using a Teflon-glass homogenizer. The protein concentration was determined, and membrane aliquots were flash-frozen in liquid nitrogen and stored at −70° C.
γ-Secretase Reaction and Aβ Analysis To measure γ-secretase activity, membranes were incubated at 37° C. for 1 h in […] of buffer containing 20 mM Hepes (pH 7.0) and 2 mM EDTA. At the end of the incubation, Aβ 40 and Aβ 42 were measured using an electrochemiluminescence (ECL)-based immunoassay. Aβ 40 was identified with antibody pairs TAG-G2-10 and biotin-W02, while Aβ 42 was identified with TAG-G2-11 and biotin-4G8. The ECL signal was measured using an ECL-M8 instrument (IGEN International, Inc.) according to the manufacturer's instructions. The data presented were the means of the duplicate or triplicate measurements in each experiment.

[1] = same membrane assay, ranges given as 'about', read-out: IC50 values within the range
[2] = membranes of 293 cells expressing SPC99-Lon (clone pTRE.15), 37° C., 1 h, read-out: IC50 (μM), γ-secretase inhibitory activity

`O=C(C(O)C1([C@H]2CCC[C@@H](c3cc(F)cc(F)c3)N2S(=O)(=O)c2ccc(Cl)cc2)CC1)N1CC[C@H](O)C1` (some centres unmarked) [Example 27] showed an IC50 [1] of 0.001 to 0.2 µM.

With `O=C(CC1(C2CCCC(c3cc(F)cc(F)c3)N2S(=O)(=O)c2ccc(Cl)cc2)CC1)N1CCC(N2CCCCC2)CC1` (centres unmarked) [Example 4] the IC50 [2] was 0.0014 µM and the IC50 [1] was 0.001 to 0.2 µM and 0.001 to 0.02 µM.

Work on `O=C(N1CCC(N2CCCCC2)CC1)C1([C@H]2CCC[C@@H](c3cc(F)cc(F)c3)N2S(=O)(=O)c2ccc(Cl)cc2)CC1` [Example 9] yielded an IC50 [1] of 0.001 to 0.2 µM.

With `O=S(=O)(CC1([C@H]2CCC[C@@H](c3cc(F)cc(F)c3)N2S(=O)(=O)c2ccc(Cl)cc2)CC1)N1CCC(N2CCOCC2)CC1` [Example 24] the IC50 [2] was 0.0145 µM and the IC50 [1] was 0.001 to 0.2 µM and 0.001 to 0.02 µM.

Work on `O=C(C(O)C1([C@H]2CCC[C@@H](c3cc(F)cc(F)c3)N2S(=O)(=O)c2ccc(Cl)cc2)CC1)N1CCC[C@H]1CO` (some centres unmarked) [Example 26] yielded an IC50 [1] of 0.001 to 0.2 µM.

In the case of `CN1CCN(S(=O)(=O)CC2([C@H]3CCC[C@@H](c4cc(F)cc(F)c4)N3S(=O)(=O)c3ccc(Cl)cc3)CC2)CC1` [Example 21], the IC50 [2] is reported as 0.0117 µM and the IC50 [1] is reported as 0.001 to 0.2 µM and 0.001 to 0.02 µM.

For `O=C(CC1(C2CCCC(c3cc(F)cc(F)c3)N2S(=O)(=O)c2ccc(Cl)cc2)CC1)N1CC[C@H](O)C1` (some centres unmarked) [Example 3], the IC50 [2] was 0.0132 µM and the IC50 [1] was 0.001 to 0.2 µM and 0.001 to 0.02 µM.

`O=C(CC1([C@@H]2CCC[C@H](c3cc(F)cc(F)c3)N2S(=O)(=O)c2ccc(Cl)cc2)CC1)N1CCN(CCO)CC1` [Example 1] was tested, and the IC50 [2] was 0.0028 µM and the IC50 [1] was 0.001 to 0.2 µM and 0.001 to 0.02 µM.

For `CCC1(OC)CC2CCC(C1)N2C(=O)C(O)C1([C@H]2CCC[C@@H](c3cc(F)cc(F)c3)N2S(=O)(=O)c2ccc(Cl)cc2)CC1` (some centres unmarked) [Example 28], the IC50 [1] was 0.001 to 0.2 µM and 0.001 to 0.02 µM.

`CCC1(O)CC2CCC(C1)N2C(=O)C(O)C1([C@H]2CCC[C@@H](c3cc(F)cc(F)c3)N2S(=O)(=O)c2ccc(Cl)cc2)CC1` (some centres unmarked) [Example 29] was tested, and the IC50 [2] was 0.0068 µM and the IC50 [1] was 0.001 to 0.2 µM and 0.001 to 0.02 µM.

Compound `O=C(CC1([C@H]2CCC[C@@H](C3CC3)N2S(=O)(=O)c2ccc(Cl)cc2)CC1)N1CCN2CCCC2C1` (some centres unmarked) [Example 44] has an IC50 [1] of 0.001 to 0.2 µM.

`O=C(N1CCC[C@H]1CO)C1([C@H]2CCC[C@@H](c3cc(F)cc(F)c3)N2S(=O)(=O)c2ccc(Cl)cc2)CC1` [Example 7] showed an IC50 [1] of 0.001 to 0.2 µM.

In the case of `O=C(CC1([C@H]2C[C@@H](O)C[C@@H](C3CC3)N2S(=O)(=O)c2ccc(Cl)cc2)CC1)N1CC[C@@H](O)C1` [Example 47], the IC50 [1] is reported as 0.001 to 0.2 µM.

With `O=C(C(O)C1([C@H]2CCC[C@@H](c3cc(F)cc(F)c3)N2S(=O)(=O)c2ccc(Cl)cc2)CC1)N1CCC(N2CCCCC2)CC1` (some centres unmarked) [Example 25] the IC50 [2] was 0.0049 µM and the IC50 [1] was 0.001 to 0.2 µM and 0.001 to 0.02 µM.

With `O=C(CC1(C2CCCC(c3cc(F)cc(F)c3)N2S(=O)(=O)c2ccc(Cl)cc2)CC1)N1CCCCC1` (centres unmarked) [Example 2] the IC50 [2] was 0.0164 µM and the IC50 [1] was 0.001 to 0.2 µM and 0.001 to 0.02 µM.

With `O=S(=O)(CC1([C@H]2CCC[C@@H](c3cc(F)cc(F)c3)N2S(=O)(=O)c2ccc(Cl)cc2)CC1)N1CCC[C@H]1CO` [Example 22] the IC50 [2] was 0.0164 µM and the IC50 [1] was 0.001 to 0.2 µM and 0.001 to 0.02 µM.

With `C[C@@H]1CN(CCO)CCN1C(=O)C1([C@H]2CCC[C@@H](c3cc(F)cc(F)c3)N2S(=O)(=O)c2ccc(Cl)cc2)CC1` [Example 11] the IC50 [1] was 0.001 to 0.2 µM.

`O=C(N1CCCC1)C1([C@H]2CCC[C@@H](c3cc(F)cc(F)c3)N2S(=O)(=O)c2ccc(Cl)cc2)CC1` [Example 8] was tested, and the IC50 [1] was 0.001 to 0.2 µM.

In the case of `CCC1(O)CC2CCC(C1)N2C(=O)CC1([C@H]2C[C@@H](O)C[C@@H](C3CC3)N2S(=O)(=O)c2ccc(Cl)cc2)CC1` (some centres unmarked) [Example 48], the IC50 [2] is reported as 0.0048 µM and the IC50 [1] is reported as 0.001 to 0.02 µM and 0.001 to 0.2 µM.

With `O=S(=O)(CC1([C@H]2CCC[C@@H](c3cc(F)cc(F)c3)N2S(=O)(=O)c2ccc(Cl)cc2)CC1)N1CCN(CCO)CC1` [Example 23] the IC50 [2] was 0.0124 µM and the IC50 [1] was 0.001 to 0.2 µM and 0.001 to 0.02 µM.

In the case of `O=C(CC1([C@H]2CCC[C@@H](c3cc(F)cc(F)c3)N2S(=O)(=O)c2ccc(Cl)cc2)CC1)N1CCC[C@H]1CO` [Example 5], the IC50 [2] is reported as 0.0196 µM and the IC50 [1] is reported as 0.001 to 0.2 µM and 0.001 to 0.02 µM.

In the case of `O=S(=O)(CC1([C@H]2CCC[C@@H](c3cc(F)cc(F)c3)N2S(=O)(=O)c2ccc(Cl)cc2)CC1)N1CC[C@H](O)C1` [Example 20], the IC50 [2] is reported as 0.0151 µM and the IC50 [1] is reported as 0.001 to 0.2 µM and 0.001 to 0.02 µM.

For `O=C(N1CCN(CCO)CC1)C1([C@H]2CCC[C@@H](c3cc(F)cc(F)c3)N2S(=O)(=O)c2ccc(Cl)cc2)CC1` [Example 10], the IC50 [1] was 0.001 to 0.2 µM.

In the case of `O=C(CC1([C@H]2C[C@@H](O)C[C@@H](C3CC3)N2S(=O)(=O)c2ccc(Cl)cc2)CC1)N1CCC(N2CCCCC2)CC1` [Example 46], the IC50 [1] is reported as 0.001 to 0.02 µM and 0.001 to 0.2 µM.

In the case of `O=S(=O)(CC1([C@@H]2CCC[C@H](c3cc(F)cc(F)c3)N2S(=O)(=O)c2ccc(Cl)cc2)CC1)N1CCC(N2CCCCC2)CC1` [Example 19], the IC50 [2] is reported as 0.0119 µM and the IC50 [1] is reported as 0.001 to 0.2 µM and 0.001 to 0.02 µM.

`O=C(CC1([C@H]2CCC[C@@H](c3cc(F)cc(F)c3)N2S(=O)(=O)c2ccc(Cl)cc2)CC1)N1CCCC1` [Example 6] was tested, and the IC50 [1] was 0.001 to 0.2 µM.

With `O=C(N1C[C@@H](N2CCCCC2)C[C@@H]1CO)C1([C@H]2CCC[C@@H](c3cc(F)cc(F)c3)N2S(=O)(=O)c2ccc(Cl)cc2)CC1` [Example 17] the IC50 [1] was 0.001 to 0.2 µM.
